Reference: patent publication US10336792B2, “Antimicrobial peptide dendrimers” (priority 2014, dated 2019)
In brackets after ≈: the same amount, converted by molar mass. Positions of bridges follow the written chain, without caps; N, C: chain ends. Non-standard residues stand in square brackets, D forms with d. Residues, ends and D or L forms follow the SMILES beside them. Groups on a side chain read outwards from the residue. Chains are numbered I, II in the order given. *: point of attachment. Stearoyl = CCCCCCCCCCCCCCCCCC(=O)*; Lauroyl = CCCCCCCCCCCC(=O)*; Decanoyl = CCCCCCCCCC(=O)*; dDap = NC[C@@H](N)C(=O)O; Dab = NCC[C@H](N)C(=O)O; Dap = NC[C@H](N)C(=O)O

Experiments:
Assay type in all cases: cell-based
[1] = system: Pseudomonas aeruginosa (strain PA01); assay: microbe, parasite or virus in culture; conditions: strain
How it was run: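 Broth microdilution MIC against P. aeruginosa PAO1 in LB: peptides serially diluted by ⅔, bacteria added at OD600 0.001 and incubated 18–24 h at 37 °C. MTT added; MIC is the lowest concentration preventing visible growth.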

[2] = system: Escherichia coli (strain DH5α); conditions: DH5α
How it was run: (§1)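 Broth microdilution MIC in LB; overnight cultures diluted to OD600 0.001 and mixed 1:1 with ⅔-serially diluted samples (stock 1 mg mL^−1 in H2O), 37° C for 18-24 h. MTT (0.1%) added; MIC read by eye as lowest concentration inhibiting visible growth (yellow).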

[3] = system: Bacillus subtilis (strain BR151); conditions: strain BR151
How it was run: as §1

| Compound | MIC P. aeruginosa PAO1 [1] [µg/mL] | MIC E. coli DH5α [2] [µg/mL] | MIC B. subtilis BR151 [3] [µg/mL] |
| --- | --- | --- | --- |
| CC(C)C[C@H](NC(=O)[C@@H](N)CCN)C(=O)NCCCC[C@H](NC(=O)[C@H](CC(C)C)NC(=O)[C@@H](N)CCN)C(=O)N[C@@H](CCN)C(=O)N[C@@H](Cc1c[nH]c2ccccc12)C(=O)NCCCC[C@H](NC(=O)[C@H](Cc1c[nH]c2ccccc12)NC(=O)[C@H](CCN)NC(=O)[C@H](CCCCNC(=O)[C@H](CC(C)C)NC(=O)[C@@H](N)CCN)NC(=O)[C@H](CC(C)C)NC(=O)[C@@H](N)CCN)C(=O)N[C@@H](CCN)C(=O)N[C@@H](C)C(=O)NCCCC[C@H](NC(=O)[C@H](C)NC(=O)[C@H](CCN)NC(=O)[C@H](CCCCNC(=O)[C@H](Cc1c[nH]c2ccccc12)NC(=O)[C@H](CCN)NC(=O)[C@H](CCCCNC(=O)[C@H](CC(C)C)NC(=O)[C@@H](N)CCN)NC(=O)[C@H](CC(C)C)NC(=O)[C@@H](N)CCN)NC(=O)[C@H](Cc1c[nH]c2ccccc12)NC(=O)[C@H](CCN)NC(=O)[C@H](CCCCNC(=O)[C@H](CC(C)C)NC(=O)[C@@H](N)CCN)NC(=O)[C@H](CC(C)C)NC(=O)[C@@H](N)CCN)C(=O)N[C@@H](CCN)C(=O)N[C@@H](Cc1c[nH]c2ccccc12)C(N)=O [MSt-206, (DabL)8(KDabW)4(KDabA)2(KDabW)] (I: H-[Dab]LK([Leu-Dab])[Dab]WK[Dab]AK[Dab]W-NH2 / II: H-[Dab]LK([Leu-Dab])[Dab]WK[Dab]A / III: H-[Dab]LK([Leu-Dab])[Dab]W / IV: H-[Dab]LK([Leu-Dab])[Dab]W; amide I:6-IV:C, I:9-II:C, II:6-III:C; N-terminus assumed) | 3 (≈ 0.683 µM) | 2 (≈ 0.455 µM) | 2 (≈ 0.455 µM) |
| CC(C)C[C@H](NC(=O)[C@H](CCCNC(=N)N)NC(=O)[C@H](CNC(=O)[C@H](CC(C)C)NC(=O)[C@H](CCCNC(=N)N)NC(=O)[C@H](CNC(=O)[C@H](CC(C)C)NC(=O)[C@H](CCCNC(=N)N)NC(=O)[C@H](CNC(=O)[C@H](CC(C)C)NC(=O)[C@@H](N)CCCNC(=N)N)NC(=O)[C@H](CC(C)C)NC(=O)[C@@H](N)CCCNC(=N)N)NC(=O)[C@H](CC(C)C)NC(=O)[C@H](CCCNC(=N)N)NC(=O)[C@H](CNC(=O)[C@H](CC(C)C)NC(=O)[C@@H](N)CCCNC(=N)N)NC(=O)[C@H](CC(C)C)NC(=O)[C@@H](N)CCCNC(=N)N)NC(=O)[C@H](CC(C)C)NC(=O)[C@H](CCCNC(=N)N)NC(=O)[C@H](CNC(=O)[C@H](CC(C)C)NC(=O)[C@H](CCCNC(=N)N)NC(=O)[C@H](CNC(=O)[C@H](CC(C)C)NC(=O)[C@@H](N)CCCNC(=N)N)NC(=O)[C@H](CC(C)C)NC(=O)[C@@H](N)CCCNC(=N)N)NC(=O)[C@H](CC(C)C)NC(=O)[C@H](CCCNC(=N)N)NC(=O)[C@H](CNC(=O)[C@H](CC(C)C)NC(=O)[C@@H](N)CCCNC(=N)N)NC(=O)[C@H](CC(C)C)NC(=O)[C@@H](N)CCCNC(=N)N)C(N)=O [MSt-137, (RL)8(BRL)4(BRL)2(BRL)] (I: H-RL[Dap]([Leu-Arg])RL[Dap]RL[Dap]RL-NH2 / II: H-RL[Dap]([Leu-Arg])RL[Dap]RL / III: H-RL[Dap]([Leu-Arg])RL / IV: H-RL[Dap]([Leu-Arg])RL; amide I:6-IV:C, I:9-II:C, II:6-III:C) | 7 (≈ 1.5 µM) | 3 (≈ 0.644 µM) | 4 (≈ 0.858 µM) |
| CC(C)C[C@H](NC(=O)[C@@H](N)CCN)C(=O)NCCCC[C@H](NC(=O)[C@H](CC(C)C)NC(=O)[C@@H](N)CCN)C(=O)N[C@@H](CCN)C(=O)N[C@@H](C)C(=O)NCCCC[C@H](NC(=O)[C@H](C)NC(=O)[C@H](CCN)NC(=O)[C@H](CCCCNC(=O)[C@H](CC(C)C)NC(=O)[C@@H](N)CCN)NC(=O)[C@H](CC(C)C)NC(=O)[C@@H](N)CCN)C(=O)N[C@@H](CCN)C(=O)N[C@@H](Cc1c[nH]c2ccccc12)C(=O)NCCCC[C@H](NC(=O)[C@H](Cc1c[nH]c2ccccc12)NC(=O)[C@H](CCN)NC(=O)[C@H](CCCCNC(=O)[C@H](C)NC(=O)[C@H](CCN)NC(=O)[C@H](CCCCNC(=O)[C@H](CC(C)C)NC(=O)[C@@H](N)CCN)NC(=O)[C@H](CC(C)C)NC(=O)[C@@H](N)CCN)NC(=O)[C@H](C)NC(=O)[C@H](CCN)NC(=O)[C@H](CCCCNC(=O)[C@H](CC(C)C)NC(=O)[C@@H](N)CCN)NC(=O)[C@H](CC(C)C)NC(=O)[C@@H](N)CCN)C(=O)N[C@@H](CCN)C(=O)N[C@@H](Cc1c[nH]c2ccccc12)C(N)=O [MSt-207, (DabL)8(KDabA)4(KDabW)2(KDabW)] (I: H-[Dab]LK([Leu-Dab])[Dab]AK[Dab]WK[Dab]W-NH2 / II: H-[Dab]LK([Leu-Dab])[Dab]AK[Dab]W / III: H-[Dab]LK([Leu-Dab])[Dab]A / IV: H-[Dab]LK([Leu-Dab])[Dab]A; amide I:6-IV:C, I:9-II:C, II:6-III:C; N-terminus assumed) | 8 (≈ 1.92 µM) | 21 (≈ 5.04 µM) | 7 (≈ 1.68 µM) |
| CCCCCCCCCC(=O)NCCCC[C@H](NC(=O)[C@H](CC(C)C)NC(=O)[C@H](CCCCN)NC(=O)[C@H](CCCCNC(=O)[C@H](CC(C)C)NC(=O)[C@H](CCCCN)NC(=O)[C@H](CCCCNC(=O)[C@H](CC(C)C)NC(=O)[C@@H](N)CCCCN)NC(=O)[C@H](CC(C)C)NC(=O)[C@@H](N)CCCCN)NC(=O)[C@H](CC(C)C)NC(=O)[C@H](CCCCN)NC(=O)[C@H](CCCCNC(=O)[C@H](CC(C)C)NC(=O)[C@@H](N)CCCCN)NC(=O)[C@H](CC(C)C)NC(=O)[C@@H](N)CCCCN)C(N)=O [MSt-262, (KL)4(KKL)2(KKLKC10)] (I: H-KLK([Leu-Lys])KLKKLK(Decanoyl)-NH2 / II: H-KLK([Leu-Lys])KL; amide I:6-II:C) | 1 (≈ 0.421 µM) | 1 (≈ 0.421 µM) | 2 (≈ 0.843 µM) |
| CC(C)C[C@@H](NC(=O)[C@@H](CCCCN)NC(=O)[C@@H](CNC(=O)[C@@H](CC(C)C)NC(=O)[C@@H](CCCCN)NC(=O)[C@@H](CNC(=O)[C@@H](CC(C)C)NC(=O)[C@@H](CCCCN)NC(=O)[C@@H](CNC(=O)[C@@H](CC(C)C)NC(=O)[C@H](N)CCCCN)NC(=O)[C@@H](CC(C)C)NC(=O)[C@H](N)CCCCN)NC(=O)[C@@H](CC(C)C)NC(=O)[C@@H](CCCCN)NC(=O)[C@@H](CNC(=O)[C@@H](CC(C)C)NC(=O)[C@H](N)CCCCN)NC(=O)[C@@H](CC(C)C)NC(=O)[C@H](N)CCCCN)NC(=O)[C@@H](CC(C)C)NC(=O)[C@@H](CCCCN)NC(=O)[C@@H](CNC(=O)[C@@H](CC(C)C)NC(=O)[C@@H](CCCCN)NC(=O)[C@@H](CNC(=O)[C@@H](CC(C)C)NC(=O)[C@H](N)CCCCN)NC(=O)[C@@H](CC(C)C)NC(=O)[C@H](N)CCCCN)NC(=O)[C@@H](CC(C)C)NC(=O)[C@@H](CCCCN)NC(=O)[C@@H](CNC(=O)[C@@H](CC(C)C)NC(=O)[C@H](N)CCCCN)NC(=O)[C@@H](CC(C)C)NC(=O)[C@H](N)CCCCN)C(N)=O [MSt-154, (kl)8(bkl)4(bkl)2(bkl)] (I: H-[dK][dL][dDap]([dL-dK])[dK][dL][dDap][dK][dL][dDap][dK][dL]-NH2 / II: H-[dK][dL][dDap]([dL-dK])[dK][dL][dDap][dK][dL] / III: H-[dK][dL][dDap]([dL-dK])[dK][dL] / IV: H-[dK][dL][dDap]([dL-dK])[dK][dL]; amide I:6-IV:C, I:9-II:C, II:6-III:C) | 6 (≈ 1.42 µM) | 2 (≈ 0.472 µM) | 2 (≈ 0.472 µM) |
| CCCCCCCCCCCCCCCCCC(=O)NCCCC[C@H](NC(=O)[C@H](CC(C)C)NC(=O)[C@H](CCCCN)NC(=O)[C@H](CCCCNC(=O)[C@H](CC(C)C)NC(=O)[C@H](CCCCN)NC(=O)[C@H](CCCCNC(=O)[C@H](CC(C)C)NC(=O)[C@@H](N)CCCCN)NC(=O)[C@H](CC(C)C)NC(=O)[C@@H](N)CCCCN)NC(=O)[C@H](CC(C)C)NC(=O)[C@H](CCCCN)NC(=O)[C@H](CCCCNC(=O)[C@H](CC(C)C)NC(=O)[C@@H](N)CCCCN)NC(=O)[C@H](CC(C)C)NC(=O)[C@@H](N)CCCCN)C(N)=O [MSt-286, (KL)4(KKL)2(KKLKC18)] (I: H-KLK([Leu-Lys])KLKKLK(Stearoyl)-NH2 / II: H-KLK([Leu-Lys])KL; amide I:6-II:C; N-terminus assumed) | 4 (≈ 1.61 µM) | 3 (≈ 1.21 µM) | 4 (≈ 1.61 µM) |
| CCCCCCCCCCCC(=O)NCCCC[C@H](NC(=O)[C@H](CC(C)C)NC(=O)[C@H](CCCCN)NC(=O)[C@H](CCCCNC(=O)[C@H](CC(C)C)NC(=O)[C@H](CCCCN)NC(=O)[C@H](CCCCNC(=O)[C@H](CC(C)C)NC(=O)[C@H](CCCCN)NC(=O)[C@H](CCCCNC(=O)[C@H](CC(C)C)NC(=O)[C@@H](N)CCCCN)NC(=O)[C@H](CC(C)C)NC(=O)[C@@H](N)CCCCN)NC(=O)[C@H](CC(C)C)NC(=O)[C@H](CCCCN)NC(=O)[C@H](CCCCNC(=O)[C@H](CC(C)C)NC(=O)[C@@H](N)CCCCN)NC(=O)[C@H](CC(C)C)NC(=O)[C@@H](N)CCCCN)NC(=O)[C@H](CC(C)C)NC(=O)[C@H](CCCCN)NC(=O)[C@H](CCCCNC(=O)[C@H](CC(C)C)NC(=O)[C@H](CCCCN)NC(=O)[C@H](CCCCNC(=O)[C@H](CC(C)C)NC(=O)[C@@H](N)CCCCN)NC(=O)[C@H](CC(C)C)NC(=O)[C@@H](N)CCCCN)NC(=O)[C@H](CC(C)C)NC(=O)[C@H](CCCCN)NC(=O)[C@H](CCCCNC(=O)[C@H](CC(C)C)NC(=O)[C@@H](N)CCCCN)NC(=O)[C@H](CC(C)C)NC(=O)[C@@H](N)CCCCN)C(N)=O [MSt-267, (KL)8(KKL)4(KKL)2(KKLKC12)] (I: H-KLK([Leu-Lys])KLKKLKKLK(Lauroyl)-NH2 / II: H-KLK([Leu-Lys])KLKKL / III: H-KLK([Leu-Lys])KL / IV: H-KLK([Leu-Lys])KL; amide I:6-IV:C, I:9-II:C, II:6-III:C) | 1 (≈ 0.206 µM) | 1 (≈ 0.206 µM) | 4 (≈ 0.826 µM) |
